The values that follow come from US20260265329A1, “POLYPEPTIDE AND DERIVATIVE THEREOF, COMPOSITION, AND USE THEREOF” (HANGZHOU SCIWIND BIOSCIENCES CO., LTD., priority 2023, published 2026).

One data set concerns the target T1, human amylin receptors (Homo sapiens, UniProt O60896+P30988).
T1 construct: host or cells: CHO-K1/Ga15/AMY3 cells, further stably transfected with a CRE-luciferase plasmid
T1 sequence (P30988 25-474): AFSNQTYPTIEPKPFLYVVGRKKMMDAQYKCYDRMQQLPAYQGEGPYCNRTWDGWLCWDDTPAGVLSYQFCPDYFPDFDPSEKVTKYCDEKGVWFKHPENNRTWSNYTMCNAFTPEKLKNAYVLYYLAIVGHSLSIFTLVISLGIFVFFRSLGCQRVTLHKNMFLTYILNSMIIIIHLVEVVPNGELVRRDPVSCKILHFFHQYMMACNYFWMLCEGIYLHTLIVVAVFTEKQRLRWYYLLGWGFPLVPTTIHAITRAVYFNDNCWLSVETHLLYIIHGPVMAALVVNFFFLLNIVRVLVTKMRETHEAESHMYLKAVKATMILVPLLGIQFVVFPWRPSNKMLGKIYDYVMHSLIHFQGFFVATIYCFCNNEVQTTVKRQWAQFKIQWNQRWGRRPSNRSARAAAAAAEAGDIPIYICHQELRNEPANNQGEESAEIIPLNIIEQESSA
T1 sequence (O60896 24-148 partner): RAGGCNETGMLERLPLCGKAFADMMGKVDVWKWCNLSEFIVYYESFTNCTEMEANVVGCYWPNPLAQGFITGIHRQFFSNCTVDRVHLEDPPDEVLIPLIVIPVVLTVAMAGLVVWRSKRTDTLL
The data set can be described thus: Luciferase assay in stably transfected amylin receptor/CRE-luc CHO cell line. It counts as cell-based.

Data set [1] in a line: Heat accelerated stability assay, 40° C., detection on 10 d and 20 d. It counts as physicochemical. To be noted: 1 mg/mL, pH about 7.4, 40° C. A digest of the protocol:
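Polypeptide derivatives at 1 mg/mL with sodium dihydrogen phosphate (1.42 mg/mL) in water, pH ~7.4, sterile-filtered and held at 40° C. Sampled at 10 d and 20 d, centrifuged, and supernatant analysed by HPLC (214 nm, 25° C., phosphate pH 5.8/ACN gradient) for concentration and purity.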

A short description of data set [2]: Efficacy assay in SD rats, dose-dependent study (Example 5). Type of data set: in vivo. How it is done:
SPF male SD rats (7-8 weeks, 220-230 g) were employed in this study after health inspection and quarantine. The experimental animals were exposed to a room temperature of 20° C.-23° C. and a relative humidity of 40%-50%, and were provided with Co60 mouse reproduction feed 1035 and purified water supplied with water feeding bottles for free intake throughout the health inspection and quarantine and the study. […] Using a single dose administered via subcutaneous injection, the study lasted for a total of 6 days with the day of administration designated as Day 1/Time 0 (TO), wherein on Day 0, the initial body weight of the animals were recorded and the initial feed was added, and on Day 1-Day 5, the body weight of the studied animals as well as the remaining food were recorded daily for calculating the percentage of weight change and the amount of food intake, any anomalies during which were required to be recorded and reported. During the study, the rats were in good condition and no anomaly was observed. Weight change=(BWTn−BWT0)/BWT0* 100%, wherein BW represented the value of body weight, and T0 and Tn represented the time points of dosing and n hours post dose respectively. Dots in the figures were represented utilizing mean±standard error of the mean (SEM). Accumulated food intake was the total amount of food intake for each of the animals prior to a certain time point post dose.

A short description of data set [3]: Efficacy assay in DIO SD rats, dose-dependent study (Example 6). It counts as in vivo. As for the experimental part:
SPF male DIO SD rats (36-37 weeks, […], fed with high-fat diet for 34 weeks from 3-week age on) were employed in this study. The experimental animals were exposed to a room temperature of 20° C.-23° C. and a relative humidity of 40%-50%, and were provided with high-fat diet D12492 and purified water supplied with water feeding bottles for free intake throughout the construction of the DIO animal model and the study. Based on their mean body weight, the animals were assigned to 6 groups designated as B1-B6 (n=5). Administration via subcutaneous injection was conducted once a day for 10 continuous days, wherein the first day of administration was designated as Day 1 (D1), and on Day 0, the initial body weight of the animals were recorded and the initial feed was added, and on Day 1-Day 11, the body weight of the studied animals as well as the remaining food were recorded daily for calculating the percentage of weight change and the amount of food intake, any anomalies during which were required to be recorded and reported. During the study, the rats were in good condition and no anomaly was observed. Weight change=(BWDn−BWD1)/BWD1*100%, wherein BW represented the value of body weight, and D1 and Dn represented the first and Nth days of administration respectively. Dots in the figures were represented utilizing mean±standard error of the mean (SEM). Accumulated food intake was the total amount of food intake for animals of each group prior to a certain time point post dose.

The nature of another data set: in vivo. Details: species or system SD rats. To be noted: male, SD, rat, sc, 1 mg/kg. As for the experimental part: The animals received a subcutaneous injection of corresponding compounds for testing (1 mg/kg and 5 ml/kg), and the day of administration was designated as D1. The whole blood of the animals was collected pre dose (-10 min) on D1 and post dose at D1-2h, D1-4h, D1-6h, D2-24h, D3-48h, D4-72h, D5-96h, and D6-120 h and was processed into plasma (using EDTA for anticoagulation). Liquid chromatography-tandem mass spectrometry (LC-MS/MS) was used to detect the concentration of drug molecules in the plasma, and GraphPad Prism 10 was utilized to plot a concentration-time curve for the drugs whose pharmacokinetic parameters including Cmax, Tmax, T1/2, AUC, and MRT were then calculated with PKSolver.

The mark [4] stands for this setting: single subcutaneous dose 10, 30, 100 nmol/kg (FIGS. 3A-3D).
Where [5] appears, read: subcutaneous once a day for 10 days, 3 and 10 nmol/kg (FIGS. 4A, 4B).

pEC50: −log10 of the molar value. Starred links: 1 amine or outer side, 2 acyl side, 3 side chain; linkers in the order of their positions; H or OH if unused. Non-standard residues stand in square brackets, D forms with d. Residues, ends and D or L forms follow the SMILES beside them. *: point of attachment. C20 diacid = O=C(O)CCCCCCCCCCCCCCCCCCC(=O)*; γGlu = O=C(O)[C@H](CCC(=O)[*:2])N[*:1]; Hyp = O=C(O)[C@@H]1C[C@@H](O)CN1

Consider `CC[C@H](C)[C@H](NC(=O)[C@@H]1CCCN1C(=O)[C@H](CCCCN)NC(=O)[C@H](CC(C)C)NC(=O)[C@H](CO)NC(=O)[C@H](CO)NC(=O)[C@H](CO)NC(=O)[C@H](CO)NC(=O)[C@H](Cc1c[nH]cn1)NC(=O)[C@H](CCCNC(=N)N)NC(=O)[C@H](CC(C)C)NC(=O)[C@H](Cc1ccccc1)NC(=O)[C@H](CC(=O)O)NC(=O)[C@H](C)NC(=O)[C@H](CC(C)C)NC(=O)[C@H](CCCNC(=N)N)NC(=O)[C@H](CCC(N)=O)NC(=O)[C@@H](NC(=O)[C@H](C)NC(=O)[C@H](C)NC(=O)[C@@H](NC(=O)[C@H](CO)NC(=O)[C@H](CC(C)C)NC(=O)[C@H](CCC(N)=O)NC(=O)[C@H](CO)NC(=O)[C@H](C)NC(=O)CC[C@H](NC(=O)CCCCCCCCCCCCCCCCCCC(=O)O)C(=O)O)[C@@H](C)O)[C@@H](C)O)C(=O)N[C@@H](CC(C)C)C(=O)N1CCC[C@H]1C(=O)N1CCC[C@H]1C(=O)N[C@H](C(=O)N[C@@H](CC(N)=O)C(=O)N[C@H](C(=O)NCC(=O)N[C@@H](CO)C(=O)N[C@@H](CC(N)=O)C(=O)N[C@H](C(=O)N1C[C@H](O)C[C@H]1C(N)=O)[C@@H](C)O)C(C)C)[C@@H](C)O` [M43] ({C20 diacid-γGlu}-ASQLSTAATQRLADFLRHSSSSLKPILPPTNVGSNT[Hyp]-NH2), for which, at human amylin receptors (EC50 ratio of Cagrilintide to the compound, Cagrilintide 100%), the Relative activity is recorded as 180%. In addition, the pEC50 (as a rule, the EC50 on a negative log10 scale, so that one unit is a factor of ten) at human amylin receptors (amylin receptor/CRE-luc CHO cells, 24 hours incubation, luminescence) was 10.30. In addition, in data set [1] (10 d), the “Reduction in purity, 10 d” value is given as 3.6%. Also, the “Reduction in purity, 20 d” value in data set [1] (20 d) is given as 6.6%. Also, in data set [2] (equivalent dosage), the “Body weight and food intake reduction compared with Cagrilintide” value was “performed better than Cagrilintide at the equivalent dosage”. For the same compound, in data set [2] (setting [4]), the “Effect on body weight” value is “dose-dependently reduced” and the “Effect on food intake” value is listed as “dose-dependently reduced”. Further, in data set [3] (equivalent dosage), the “Body weight and food intake reduction compared with Cagrilintide” value is on record as “performed better than Cagrilintide at the equivalent dosage”. Moreover, in data set [3] (setting [5]), the “Effect on body weight” value is “dose-dependently reduced” and the “Effect on food intake” value is reported as “dose-dependently reduced”. For the same compound, in “in vivo”, the AUC(0-inf) (as a rule, the area under the concentration-time curve extrapolated to infinity) amounted to 217 µg·h/mL; the AUC(0-t) (usually the area under the concentration-time curve up to a stated or last time point) was 214 µg·h/mL; the concentration peaked (Cmax) at 4.93 µg/mL; the mean residence time MRT inf (as a rule, the average time that molecules of a dose stay in the body) stood at 39 h. In “in vivo”, the Tmax – broadly, the time at which the peak concentration occurs – was 24 h and the half-life (commonly the time needed for the level to fall by half in the phase considered) is 21.3 h.
